Earlier results in EP3952993B1, “METHOD OF TREATING FUMARIC ACID ESTER-RESISTANT PLAQUE PSORIASIS” (Almirall S.A., priority 2019, dated 2020).
Counter-ions that a name gives are not always drawn.

Test system: patients diagnosed with moderate-to-severe psoriasis
Conditions: up to 720 mg/daily; 16 weeks; vs Fumaderm and placebo

Compound: COC(=O)/C=C/C(=O)OC [DMF, dimethyl fumarate]
- co-primary endpoints: PASI 75 and clear/almost clear in the PGA: significantly superior to placebo and non-inferior to FAEs
